Assay results: PubChem BioAssay AID2060495 (Molecular Pharmacology Branch, DTP, NCI, 2025)

Test system: 521955-158-R2-J5-PDC complex spheroid viability
Experiment: Anticancer human tumor 521955-158-R2-J5-PDC patient-derived pancreatic carcinoma cell line growth inhibition [GQUAD]
Conditions: for IC50: curve of first compound; for viability, T/C: stronger effect = lower value; active = viability on the fitted dose curve at most 10% of control; inactive = the rest
Procedure, shortened: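 Viability of tumor cells grown as complex spheroids with endothelial and stromal cells, exposed to drug combinations. Top concentration at or near clinical Cmax (else 10 microM), diluted in half-log increments.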

[1] = second compound 0.0316 µM, first compound 0.0316 µM
[2] = second compound 0.0316 µM, first compound 0.1 µM
[3] = second compound 0.0316 µM, first compound 0.316 µM
[4] = second compound 0.0316 µM, first compound 1 µM
[5] = second compound 0.0316 µM, first compound 3.16 µM
[6] = second compound 0.0316 µM, first compound 10 µM
[7] = second compound 0.1 µM, first compound 0.0316 µM
[8] = second compound 0.1 µM, first compound 0.1 µM
[9] = second compound 0.1 µM, first compound 0.316 µM
[10] = second compound 0.1 µM, first compound 1 µM
[11] = second compound 0.1 µM, first compound 3.16 µM
[12] = second compound 0.1 µM, first compound 10 µM
[13] = second compound 0.316 µM, first compound 0.0316 µM
[14] = second compound 0.316 µM, first compound 0.1 µM
[15] = second compound 0.316 µM, first compound 0.316 µM
[16] = second compound 0.316 µM, first compound 1 µM
[17] = second compound 0.316 µM, first compound 3.16 µM
[18] = second compound 0.316 µM, first compound 10 µM
[19] = second compound 1 µM, first compound 0.0316 µM
[20] = second compound 1 µM, first compound 0.1 µM
[21] = second compound 1 µM, first compound 0.316 µM
[22] = second compound 1 µM, first compound 1 µM
[23] = second compound 1 µM, first compound 3.16 µM
[24] = second compound 1 µM, first compound 10 µM
[25] = second compound 3.16 µM, first compound 0.0316 µM
[26] = second compound 3.16 µM, first compound 0.1 µM
[27] = second compound 3.16 µM, first compound 0.316 µM
[28] = second compound 3.16 µM, first compound 1 µM
[29] = second compound 3.16 µM, first compound 3.16 µM
[30] = second compound 3.16 µM, first compound 10 µM
[31] = second compound 10 µM, first compound 0.0316 µM
[32] = second compound 10 µM, first compound 0.1 µM
[33] = second compound 10 µM, first compound 0.316 µM
[34] = second compound 10 µM, first compound 1 µM
[35] = second compound 10 µM, first compound 3.16 µM
[36] = second compound 10 µM, first compound 10 µM
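Also: spheroids exposed to agents for one week before reading.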
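For viability, T/C in this document: 100% = DMSO vehicle control viability.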

C=CCn1c(=O)c2cnc(Nc3ccc(N4CCN(C)CC4)cc3)nc2n1-c1cccc(C(C)(C)O)n1 + Cc1[nH]c2ccc(F)cc2c1-c1nc2c3cccnc3c3ncccc3c2[nH]1
217 nM: IC50 (second compound 0.0316 µM)
159 nM: IC50 (second compound 3.16 µM)
inactive: viability, T/C [1] 103% | viability, T/C [2] 84.9% | viability, T/C [3] 33.1% | viability, T/C [4] 14.6% | viability, T/C [5] 12.6% | viability, T/C [6] 12.1% | viability, T/C [7] 95.1% | viability, T/C [8] 75.8% | viability, T/C [9] 25.8% | viability, T/C [10] 15.8% | viability, T/C [11] 11.1% | viability, T/C [12] 10.5% | viability, T/C [13] 79.9% | viability, T/C [14] 66.6% | viability, T/C [15] 33.2% | viability, T/C [16] 15.2% | viability, T/C [17] 13.2% | viability, T/C [18] 12.1% | viability, T/C [19] 84.1% | viability, T/C [20] 75.4% | viability, T/C [21] 23.4% | viability, T/C [22] 12.8% | viability, T/C [23] 12.6% | viability, T/C [24] 10.4% | viability, T/C [25] 77% | viability, T/C [26] 60.4% | viability, T/C [27] 34.8% | viability, T/C [28] 15% | viability, T/C [29] 15.3% | viability, T/C [30] 19.6% | viability, T/C [31] 68.7% | viability, T/C [32] 68.3% | viability, T/C [33] 36.5% | viability, T/C [34] 18.2% | viability, T/C [35] 14% | viability, T/C [36] 15.6%
177 nM: IC50 (second compound 0.316 µM)
192 nM: IC50 (second compound 10 µM)
182 nM: IC50 (second compound 0.1 µM)
175 nM: IC50 (second compound 1 µM)

CC(C)(O)C1CCC(Nc2ccc3ncc(-c4cccc(C(F)(F)F)c4)n3n2)CC1 (stereo unspecified) + Cc1[nH]c2ccc(F)cc2c1-c1nc2c3cccnc3c3ncccc3c2[nH]1
1990 nM: IC50 (second compound 0.1 µM)
1930 nM: IC50 (second compound 3.16 µM)
2010 nM: IC50 (second compound 0.316 µM)
1890 nM: IC50 (second compound 10 µM)
1960 nM: IC50 (second compound 1 µM)
2050 nM: IC50 (second compound 0.0316 µM)
active: viability, T/C [35] 9.89% | viability, T/C [36] 9.4%
inactive: viability, T/C [1] 93.5% | viability, T/C [2] 109% | viability, T/C [3] 101% | viability, T/C [4] 125% | viability, T/C [5] 15.5% | viability, T/C [6] 10.8% | viability, T/C [7] 102% | viability, T/C [8] 107% | viability, T/C [9] 103% | viability, T/C [10] 117% | viability, T/C [11] 11.3% | viability, T/C [12] 11.7% | viability, T/C [13] 107% | viability, T/C [14] 100% | viability, T/C [15] 102% | viability, T/C [16] 116% | viability, T/C [17] 12.6% | viability, T/C [18] 14.7% | viability, T/C [19] 95.8% | viability, T/C [20] 94.3% | viability, T/C [21] 102% | viability, T/C [22] 121% | viability, T/C [23] 11.7% | viability, T/C [24] 11.9% | viability, T/C [25] 91.2% | viability, T/C [26] 79.3% | viability, T/C [27] 92.9% | viability, T/C [28] 113% | viability, T/C [29] 16.5% | viability, T/C [30] 10.7% | viability, T/C [31] 83.2% | viability, T/C [32] 87.8% | viability, T/C [33] 102% | viability, T/C [34] 126%

COc1ncnc(C2CC2)c1-c1ncc2cnn(Cc3ccc(-c4nc(C(F)(F)F)cn4C(C)C)cc3)c2n1 + Cc1[nH]c2ccc(F)cc2c1-c1nc2c3cccnc3c3ncccc3c2[nH]1
inactive: viability, T/C [1] 94% | viability, T/C [2] 103% | viability, T/C [3] 107% | viability, T/C [4] 111% | viability, T/C [5] 100% | viability, T/C [6] 143% | viability, T/C [7] 101% | viability, T/C [8] 99.2% | viability, T/C [9] 105% | viability, T/C [10] 126% | viability, T/C [11] 104% | viability, T/C [12] 121% | viability, T/C [13] 109% | viability, T/C [14] 97.5% | viability, T/C [15] 125% | viability, T/C [16] 112% | viability, T/C [17] 116% | viability, T/C [18] 126% | viability, T/C [19] 97.8% | viability, T/C [20] 91.9% | viability, T/C [21] 102% | viability, T/C [22] 112% | viability, T/C [23] 133% | viability, T/C [24] 119% | viability, T/C [25] 87.7% | viability, T/C [26] 90.1% | viability, T/C [27] 98.1% | viability, T/C [28] 111% | viability, T/C [29] 125% | viability, T/C [30] 116% | viability, T/C [31] 81.8% | viability, T/C [32] 68.6% | viability, T/C [33] 101% | viability, T/C [34] 102% | viability, T/C [35] 109% | viability, T/C [36] 116%
> 10000 nM: IC50 (second compound 0.0316 µM) | IC50 (second compound 0.1 µM) | IC50 (second compound 0.316 µM) | IC50 (second compound 1 µM) | IC50 (second compound 3.16 µM) | IC50 (second compound 10 µM)
